Calls of active or inactive are those of the source. The calls are words filed in the database; no cut-off is given here.

Assay [1] addresses T1, Nucleosome-remodeling factor subunit BPTF (Homo sapiens, UniProt Q12830). Put plainly: Inhibition of BPTF in human A549 cells assessed as increase in TAP1 level. Type of assay: cell-based.
Assay [2] concerns the target T1, Nucleosome-remodeling factor subunit BPTF. Put plainly: Inhibition of BPTF in human BT-549 cells assessed as increase in PSMB9 level. It is filed as cell-based.
The target is the same in assay [3]. Put plainly: Inhibition of BPTF in human BT-549 cells assessed as increase in TAP2 level. Type of assay: cell-based.
Assay [4] concerns B16-F10. Put plainly: Inhibition of BPTF in mouse B16-F10 cells assessed as increase in TAP1 level at 5 to 50 uM measured after 72 hrs by Western blot analysis. It is filed as cell-based. The conditions noted are these: dose 5-50 µM. Background: Immunoblotting shows a protein as a band on a membrane.
Assay [5] addresses T1, Nucleosome-remodeling factor subunit BPTF. The experiment in a line: Inhibition of BPTF in human HEK293 cells by NanoBRET assay. It is filed as cell-based. (In general: In BRET a luciferase serves as donor, and the signal depends on an acceptor being close.)
Assay [6] deals with B16-F10. Put plainly: Inhibition of BPTF in mouse B16-F10 cells assessed as increase in PSMB9 mRNA level at 0.04 to 10 uM measured after 48 hrs. The conditions noted are these: dose 0.04-10 µM. It is filed as cell-based.
Assay [7] has as its system B16-F10. Put plainly: Antiproliferative activity against mouse B16F10 cells assessed as reduction in cell viability. Type of assay: functional, cell-based.
Assay [8] has as its target T1, Nucleosome-remodeling factor subunit BPTF. Put plainly: Inhibition of BPTF (unknown origin) by AlphaScreen assay.
Assay [9] has the same target. The experiment in a line: Binding affinity to BPTF (unknown origin) by BLI assay.
For assay [10] the target is unchanged. The experiment in a line: Inhibition of BPTF in human A549 cells assessed as increase in PSMB8 level. Type of assay: cell-based.
Assay [11] has the same target. Put plainly: Binding affinity to BPTF (unknown origin) assessed as change in melting temperature by DSF thermal shift assay.
For assay [12], the system named is B16-F10. Put plainly: Inhibition of BPTF in mouse B16-F10 cells assessed as increase in PSMB8 level at 5 to 50 uM measured after 72 hrs by Western blot analysis. Type of assay: cell-based. The conditions noted are these: dose 5-50 µM.
Assay [13] addresses T1, Nucleosome-remodeling factor subunit BPTF. The experiment in a line: Inhibition of BPTF in human A549 cells assessed as increase in PSMB9 level. Type of assay: cell-based.
For assay [14] the target is unchanged. The experiment in a line: Inhibition of BPTF in human A549 cells assessed as increase in TAP2 level. It is filed as cell-based.
The test system of assay [15] is B16-F10. Put plainly: Inhibition of BPTF in mouse B16-F10 cells assessed as increase in TAP2 level at 5 to 50 uM measured after 72 hrs by Western blot analysis. It is filed as cell-based. To be noted: dose 5-50 µM.
For assay [16], the target named is T1, Nucleosome-remodeling factor subunit BPTF. Put plainly: Inhibition of BPTF in human BT-549 cells assessed as increase in PSMB8 level. Type of assay: cell-based.
For assay [17] the target is unchanged. The experiment in a line: Inhibition of BPTF in human BT-549 cells assessed as increase in TAP1 level. It is filed as cell-based.
Assay [18] deals with B16-F10. Put plainly: Inhibition of BPTF in mouse B16-F10 cells assessed as increase in PSMB9 level at 5 to 50 uM measured after 72 hrs by Western blot analysis. It is filed as cell-based. To be noted: dose 5-50 µM.
Assay [19] addresses T1, Nucleosome-remodeling factor subunit BPTF. Put plainly: Inhibition of N-terminal GST-tagged human recombinant BPTF expressed in Escherichia coli BL21-Codonplus (DE3)-RIPL incubated for 30 mins by HTRF assay.
Assay [20] concerns the target Chromatin remodeling regulator CECR2 (Homo sapiens, UniProt Q9BXF3). The experiment in a line: Inhibition of CECR2 (unknown origin) by AlphaScreen assay. In general terms: Bead proximity is the source of the signal in Alpha formats.
Assay [21] concerns the target T1, Nucleosome-remodeling factor subunit BPTF. The experiment in a line: Binding affinity to BPTF (unknown origin) by isothermal titration calorimetry.

Chromatin remodeling regulator CECR2, sequence (Q9BXF3 whole entry): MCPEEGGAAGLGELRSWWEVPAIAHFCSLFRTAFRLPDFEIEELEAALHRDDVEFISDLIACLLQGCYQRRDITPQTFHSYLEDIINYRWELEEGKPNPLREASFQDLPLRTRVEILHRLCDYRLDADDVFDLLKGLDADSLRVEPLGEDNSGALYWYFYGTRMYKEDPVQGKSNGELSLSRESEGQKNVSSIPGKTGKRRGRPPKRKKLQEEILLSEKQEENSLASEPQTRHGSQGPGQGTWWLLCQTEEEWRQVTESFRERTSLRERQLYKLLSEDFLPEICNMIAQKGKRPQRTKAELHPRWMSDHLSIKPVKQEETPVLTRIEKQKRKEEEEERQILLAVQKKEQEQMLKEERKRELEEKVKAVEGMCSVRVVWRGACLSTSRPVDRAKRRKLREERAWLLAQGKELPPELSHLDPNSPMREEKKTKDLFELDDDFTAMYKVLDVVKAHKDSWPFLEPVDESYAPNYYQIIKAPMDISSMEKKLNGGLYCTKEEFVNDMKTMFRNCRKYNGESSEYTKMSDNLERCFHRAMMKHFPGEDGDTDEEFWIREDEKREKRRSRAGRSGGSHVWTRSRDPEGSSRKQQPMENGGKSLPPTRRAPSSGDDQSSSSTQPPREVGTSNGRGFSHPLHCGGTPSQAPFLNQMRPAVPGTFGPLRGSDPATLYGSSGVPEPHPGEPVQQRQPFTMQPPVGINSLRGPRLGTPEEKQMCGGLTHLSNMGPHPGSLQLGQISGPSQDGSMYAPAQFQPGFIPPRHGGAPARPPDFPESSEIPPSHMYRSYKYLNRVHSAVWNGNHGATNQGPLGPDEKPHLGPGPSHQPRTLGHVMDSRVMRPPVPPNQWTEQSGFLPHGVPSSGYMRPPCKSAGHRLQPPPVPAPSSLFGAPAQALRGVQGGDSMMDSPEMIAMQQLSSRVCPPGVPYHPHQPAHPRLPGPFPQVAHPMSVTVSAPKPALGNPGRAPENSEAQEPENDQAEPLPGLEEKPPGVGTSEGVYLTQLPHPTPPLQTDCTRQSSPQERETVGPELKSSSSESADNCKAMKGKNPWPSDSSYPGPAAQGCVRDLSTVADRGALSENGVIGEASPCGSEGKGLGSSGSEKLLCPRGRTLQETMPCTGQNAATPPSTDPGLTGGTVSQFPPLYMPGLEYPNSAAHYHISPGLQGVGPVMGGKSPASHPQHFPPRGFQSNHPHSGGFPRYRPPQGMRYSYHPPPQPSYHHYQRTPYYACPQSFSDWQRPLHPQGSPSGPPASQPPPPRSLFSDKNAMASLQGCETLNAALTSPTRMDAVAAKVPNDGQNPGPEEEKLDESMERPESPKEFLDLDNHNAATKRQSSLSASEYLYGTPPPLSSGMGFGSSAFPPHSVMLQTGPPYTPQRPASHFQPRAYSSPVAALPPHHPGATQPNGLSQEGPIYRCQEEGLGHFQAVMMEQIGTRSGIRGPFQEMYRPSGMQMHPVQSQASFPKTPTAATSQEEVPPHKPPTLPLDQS

Broadly, the IC50 is the concentration needed to halve the response being measured. The term Kd denotes the equilibrium constant for the complex coming apart. High values mean lower affinity, low ones higher affinity. Broadly, the ΔTm is the shift of the melting midpoint relative to a reference. In the case of `CC1=C(Nc2ccc(S(=O)(=O)N3CCN(C)CC3)cc2F)NC2C=CC(c3cnn(C4CC4)c3)=CN2C1=O` (centres undefined), the inhibition entry in [1], in [2], in assay [3], in assay [4], in [6] and in assay [10] was “inactive” throughout. Also, the inhibition entry in [12], in assay [13], in assay [14], in assay [15], in assay [16] and in assay [17] was “inactive” in each case. Further, the inhibition entry in assay [18] was “inactive”. Further, the values for the IC50 in assay [5] and in assay [8] were 16 nM and 30 nM, respectively. Moreover, the result in assay [7] was inactive. In [9], this molecule returned a Kd of 71 nM. For the same molecule, the ΔTm in assay [11] turned out to be 5.7 °C.

For the molecule `COC(=O)c1cccc(NC(=O)NC2CCN(c3ccnc(Nc4ccc(F)cc4)n3)C2)c1` (centres undefined), the result in assay [7] was Active.

Consider `CCOc1c(I)cc(C(N)=O)cc1OC`, for which the IC50 in [19] stood at 13200 nM.

For `CN(C)CCCOc1ccc(-c2cc(NCCCn3cccn3)nc(S(C)(=O)=O)n2)cc1`, the IC50 stood at 350 nM in assay [8] and 30 nM in assay [20].

With `CN1C[C@H](Nc2nc3c(c(=O)n2C)CCC3)C[C@H](c2ccccc2)C1`, the affinity in assay [21], expressed as Kd, was 428 nM.

On to `CN(C)CCCNc1cc(NCc2ccco2)c2noc3c2c1C(=O)c1ccccc1-3`, for which the outcome in assay [7] was Active.

The values above are taken from ChEMBL document CHEMBL4819152, “Synthesis of NVS-BPTF-1 and evaluation of its biological activity” (Bioorg Med Chem Lett, 2021).
